In PMC11078746 (Nature, 2024):
“And” between values parts separate entries of the source, which are not always exact repeats. Identical values can stand only once.

Assays:
KM12 [1] = test: 4 day proliferation assay (CellTiter-Glo); settings: Homo sapiens, KM12, 96 h, read-out: 4 day assay GI50
logD / logP = assay type: physicochemical
SNU520 = test: CFA 10-14 day clonogenic assay; assay type: cell-based; settings: Homo sapiens
2313287 = test: CFA 10-14 day clonogenic assay; assay type: cell-based; settings: Homo sapiens
LS513 = test: 4 day proliferation assay (CellTiter-Glo); settings: Homo sapiens, LS-513, 96 h, read-out: 4 day assay GI50
SW48 xenografts = test: SW48 xenograft efficacy, HRO761, irinotecan and combination; assay type: in vivo, mouse
Procedure: (§1) All animal studies were conducted in accordance with ethics and procedures covered by permit BS-2275 and BS-1975 issued by the Kantonales Veterinäramt Basel-Stadt and in strict adherence to guidelines of the Eidgenössisches Tierschutzgesetz and the Eidgenössische Tierschutzverordnung, Switzerland. All animal studies were approved by the internal ethics committee. All animals had access to food and water ad libitum and were identified with transponders. They were housed in a specific-pathogen-free facility in IVC racks under a 12 h–12 h light–dark cycle. To establish cell-line-derived xenograft models, 6–7-week-old female athymic nude (Crl:NU(NCr)-Foxn1^nu) or SCID-BEIGE (CB17.Cg-PrkdcscidLystbg-J/Crl) mice from Charles River were engrafted subcutaneously with 5 million tumour cells in HBSS (H6648, Sigma-Aldrich). For SNU-407, Lovo, IM95, RL95.2, Ishikawa and IGROV-1, the cells were concentrated in 50% Matrigel (354234, Corning). Patient-derived xenografts were induced and expanded by transplantation as previously described. […] For the efficacy experiment, mice were randomized into groups (n = 5–6) for a mean tumour size of 100–150 mm^3. […] Blood samples were collected on day 7 and 91. […] Tumour responses are reported with the measures of tumour volumes from the treatment start. […] Animals were randomized (n = 3) and tumour samples were collected at 0, 1, 4, 8 and 24 h on the first day and then collected 4 h after the last treatment on day 3, 8, 10, 14 (including a 24 h timepoint), 17 and 21. Tumours were excised, weighed, either frozen in liquid nitrogen and cryogenic dry pulverized with the CryoPrep system (model CP-02, Covaris) or processed to FFPE after fixation. […] On day 12, blood samples were collected for PK analysis. On the last day (3 h after the last treatment), tumours were excised, weighed, frozen in liquid nitrogen and cryogenic dry pulverized for PD analysis.

5495-HX xenograft = test: MSI xenograft model efficacy; assay type: in vivo, mouse; settings: colorectal carcinoma, 60 or 120 mg/kg
Procedure: as §1

LIM2405 xenograft = test: MSI xenograft model efficacy; assay type: in vivo, mouse; settings: LIM2405, colorectal carcinoma; 60 or 120 mg/kg
Procedure: as §1

HCT116 TP53 WT xenograft = test: MSI xenograft model efficacy; assay type: in vivo, mouse; settings: for Mean TVol / Tumour volume (TVol): HCT116 WT, 60 mpk; for Tumour volume (TVol): single mouse, 60 mg/kg
Procedure: as §1

RL95.2 xenograft = test: MSI xenograft model efficacy; assay type: in vivo, mouse; settings: RL95.2, Endometrial carcinoma; 60 or 120 mg/kg
Procedure: as §1

SNU1 = test: 4 day proliferation assay (CellTiter-Glo); settings: Homo sapiens, SNU1, 96 h, read-out: 4 day assay GI50
OC314 = test: 4 day proliferation assay (CellTiter-Glo); settings: Homo sapiens, OC-314, 96 h, read-out: 4 day assay GI50
IGROV1 = test: 4 day proliferation assay (CellTiter-Glo); settings: Homo sapiens, IGROV-1, 96 h, read-out: 4 day assay GI50
Rat PK = assay type: in vivo
Procedure: PK parameters were determined by non-compartmental analysis. Intravenous bolus studies in mouse, rat and dog were performed at 1, 1 and 0.1 mg per kg respectively (Extended Data Table 1).

KM12 [2] = test: CFA 10-14 day clonogenic assay; assay type: cell-based; settings: Homo sapiens

CCc1c(N2CCN(C(=O)c3ncnc(C)c3O)CC2)c(=O)n2nc(C3=CCOCC3)nc2n1CC(=O)Nc1ccc(C(F)(F)F)cc1Cl [HRO761]
GI50 (KM12 [1]): 1380 nM
logP (logD / logP): 3.4
logD (logD / logP; 1-octanol/water, pH 7.4, 1-octanol and water at pH 7.4): 1.8
GI50 (SNU520): 1740 nM
GI50 2313287: 2080 nM
GI50 (LS513): ≥ 10000 nM
Mean TVol (mm3) (SW48 xenografts; HRO761 20mg/kg, day 0 post 1st dose): 247.56 mm3
Mean TVol (mm3) (SW48 xenografts; HRO761 20mg/kg, day 7 post 1st dose): 408.23 mm3
Mean TVol (mm3) (SW48 xenografts; HRO761 20mg/kg, day 14 post 1st dose): 343.04 mm3
Mean TVol (mm3) (SW48 xenografts; HRO761 20mg/kg, day 21 post 1st dose): 353.40 mm3
Mean TVol (mm3) (SW48 xenografts; HRO761 20mg/kg, day 28 post 1st dose): 598.05 mm3
Mean TVol (mm3) (SW48 xenografts; HRO761 20mg/kg, day 35 post 1st dose): 1006.91 mm3
Mean TVol (mm3) (SW48 xenografts; HRO761 20mg/kg, day 4 post 1st dose): 324.64 mm3
Mean TVol (mm3) (SW48 xenografts; HRO761 20mg/kg, day 11 post 1st dose): 389.58 mm3
Mean TVol (mm3) (SW48 xenografts; HRO761 20mg/kg, day 18 post 1st dose): 304.90 mm3
Mean TVol (mm3) (SW48 xenografts; HRO761 20mg/kg, day 25 post 1st dose): 411.31 mm3
Mean TVol (mm3) (SW48 xenografts; HRO761 20mg/kg, day 32 post 1st dose): 799.70 mm3
Mean TVol (mm3) (SW48 xenografts; HRO761 40mg/kg, day 0 post 1st dose, n=6): 170.74 mm3
Mean TVol (mm3) (SW48 xenografts; HRO761 40mg/kg, day 3 post 1st dose, n=6): 266.92 mm3
Mean TVol (mm3) (SW48 xenografts; HRO761 40mg/kg, day 7 post 1st dose, n=6): 238.47 mm3
Mean TVol (mm3) (SW48 xenografts; HRO761 40mg/kg, day 10 post 1st dose, n=6): 242.34 mm3
Mean TVol (mm3) (SW48 xenografts; HRO761 40mg/kg, day 14 post 1st dose, n=6): 187.67 mm3
Mean TVol (mm3) (SW48 xenografts; HRO761 40mg/kg, day 17 post 1st dose, n=6): 156.98 mm3
Mean TVol (mm3) (SW48 xenografts; HRO761 40mg/kg, day 21 post 1st dose, n=6): 121.57 mm3
Mean TVol (mm3) (SW48 xenografts; HRO761 40mg/kg, day 24 post 1st dose, n=6): 71.41 mm3
Mean TVol (mm3) (SW48 xenografts; HRO761 40mg/kg, day 28 post 1st dose, n=6): 43.54 mm3
Mean TVol (mm3) (SW48 xenografts; HRO761 40mg/kg, day 31 post 1st dose, n=6): 43.20 mm3
Mean TVol (mm3) (SW48 xenografts; HRO761 40mg/kg, day 35 post 1st dose, n=6): 52.04 mm3
Mean TVol (mm3) (SW48 xenografts; HRO761 40mg/kg, day 38 post 1st dose, n=6): 63.12 mm3
Mean TVol (mm3) (SW48 xenografts; HRO761 40mg/kg, day 43 post 1st dose, n=6): 108.93 mm3
Mean TVol (mm3) (SW48 xenografts; HRO761 40mg/kg, day 46 post 1st dose, n=6): 106.14 mm3
Mean TVol (mm3) (SW48 xenografts; HRO761 40mg/kg, day 49 post 1st dose, n=6): 165.61 mm3
Mean TVol (mm3) (SW48 xenografts; HRO761 40mg/kg, day 52 post 1st dose, n=6): 180.62 mm3
Mean TVol (mm3) (SW48 xenografts; HRO761 40mg/kg, day 56 post 1st dose, n=6): 250.37 mm3
Mean TVol (mm3) (SW48 xenografts; HRO761 40mg/kg, day 59 post 1st dose, n=6): 307.84 mm3
Mean TVol (mm3) (SW48 xenografts; HRO761 40mg/kg, day 63 post 1st dose, n=6): 385.98 mm3
Mean TVol (mm3) (SW48 xenografts; HRO761 40mg/kg, day 67 post 1st dose, n=6): 504.27 mm3
Mean TVol (mm3) (SW48 xenografts; HRO761 40mg/kg, day 70 post 1st dose, n=6): 521.42 mm3
Mean TVol (mm3) (SW48 xenografts; HRO761 40mg/kg, day 73 post 1st dose, n=6): 687.64 mm3
Best average response (5495-HX xenograft): -50
Best average response (LIM2405 xenograft): 44
Best average response (HCT116 TP53 WT xenograft; HCT116 P53 WT, colorectal carcinoma, 60 or 120 mg/kg): -60
Mean TVol (HCT116 TP53 WT xenograft; day 0): 219.01 mm3
Tumour volume (TVol) (HCT116 TP53 WT xenograft; day 0 post 1st dose): 93.52 mm3 and 234.39 mm3 and 157.76 mm3 and 320.89 mm3 and 161.54 mm3 and 345.97 mm3
Mean TVol (HCT116 TP53 WT xenograft; day 3): 281.33 mm3
Tumour volume (TVol) (HCT116 TP53 WT xenograft; day 3): 104.72 mm3 and 379.81 mm3 and 232.95 mm3 and 368.27 mm3 and 173.78 mm3 and 428.47 mm3
Mean TVol (HCT116 TP53 WT xenograft; day 7): 242.31 mm3
Tumour volume (TVol) (HCT116 TP53 WT xenograft; day 7): 103.44 mm3 and 369.23 mm3 and 158.31 mm3 and 312.72 mm3
Mean TVol (HCT116 TP53 WT xenograft; day 10): 237.77 mm3
Mean TVol (HCT116 TP53 WT xenograft; day 14): 208.41 mm3
Tumour volume (TVol) (HCT116 TP53 WT xenograft; day 14): 70.08 mm3 and 324.15 mm3 and 133.86 mm3 and 295.48 mm3 and 98.69 mm3 and 328.18 mm3
Mean TVol (HCT116 TP53 WT xenograft; day 17): 206.85 mm3
Tumour volume (TVol) (HCT116 TP53 WT xenograft; day 17): 71.54 mm3 and 333.55 mm3 and 123.78 mm3 and 277.24 mm3 and 67.49 mm3 and 367.52 mm3
Mean TVol (HCT116 TP53 WT xenograft; day 21): 182.16 mm3
Tumour volume (TVol) (HCT116 TP53 WT xenograft; day 21): 68.28 mm3 and 318.05 mm3 and 133.60 mm3 and 239.83 mm3 and 55.74 mm3 and 277.43 mm3
Mean TVol (HCT116 TP53 WT xenograft; day 24): 152.12 mm3
Tumour volume (TVol) (HCT116 TP53 WT xenograft; day 24): 51.97 mm3 and 322.25 mm3 and 104.45 mm3 and 220.64 mm3 and 35.09 mm3 and 178.30 mm3
Mean TVol (HCT116 TP53 WT xenograft; day 29): 108.49 mm3
Tumour volume (TVol) (HCT116 TP53 WT xenograft; day 29): 53.97 mm3 and 224.74 mm3 and 66.70 mm3 and 182.17 mm3 and 28.07 mm3 and 95.29 mm3
Mean TVol (HCT116 TP53 WT xenograft; day 31): 115.60 mm3
Tumour volume (TVol) (HCT116 TP53 WT xenograft; day 31): 67.20 mm3 and 248.87 mm3 and 79.67 mm3 and 165.88 mm3 and 35.96 mm3 and 96.04 mm3
Mean TVol (HCT116 TP53 WT xenograft; day 35): 82.07 mm3
Tumour volume (TVol) (HCT116 TP53 WT xenograft; day 35): 74.11 mm3 and 171.12 mm3 and 62.35 mm3 and 120.74 mm3 and 20.08 mm3 and 43.99 mm3
Mean TVol (HCT116 TP53 WT xenograft; day 38): 85.39 mm3
Tumour volume (TVol) (HCT116 TP53 WT xenograft; day 38): 95.75 mm3 and 187.18 mm3 and 54.75 mm3 and 135.21 mm3 and 15.88 mm3 and 23.55 mm3
Mean TVol (HCT116 TP53 WT xenograft; day 42): 74.87 mm3
Tumour volume (TVol) (HCT116 TP53 WT xenograft; day 42): 111.35 mm3 and 127.20 mm3 and 44.64 mm3 and 140.38 mm3 and 12.27 mm3 and 13.40 mm3
Mean TVol (HCT116 TP53 WT xenograft; day 45): 100.30 mm3
Tumour volume (TVol) (HCT116 TP53 WT xenograft; day 45): 197.14 mm3 and 123.97 mm3 and 48.50 mm3 and 218.58 mm3 and 10.09 mm3 and 3.53 mm3
Mean TVol (HCT116 TP53 WT xenograft; day 49): 121.82 mm3
Tumour volume (TVol) (HCT116 TP53 WT xenograft; day 49): 316.70 mm3 and 100.63 mm3 and 72.22 mm3 and 229.46 mm3 and 10.59 mm3 and 1.31 mm3
Mean TVol (HCT116 TP53 WT xenograft; day 53): 194.25 mm3
Tumour volume (TVol) (HCT116 TP53 WT xenograft; day 53): 483.74 mm3 and 180.66 mm3 and 93.29 mm3 and 393.80 mm3 and 13.76 mm3 and 0.25 mm3
Mean TVol (HCT116 TP53 WT xenograft; day 56): 269.54 mm3
Tumour volume (TVol) (HCT116 TP53 WT xenograft; day 56): 671.24 mm3 and 160.85 mm3 and 148.76 mm3 and 618.00 mm3 and 18.36 mm3 and 0.00 mm3
Mean TVol (HCT116 TP53 WT xenograft; day 60): 408.84 mm3
Tumour volume (TVol) (HCT116 TP53 WT xenograft; day 60): 1070.44 mm3 and 236.23 mm3 and 249.04 mm3 and 872.91 mm3 and 24.42 mm3 and 0.00 mm3
Best average response (RL95.2 xenograft): -66
GI50 (SNU1): ≥ 10000 nM
GI50 (OC314): ≥ 10000 nM
GI50 (IGROV1): 2760 nM
Rat PK, oral bioavailability (F) (Rat PK): 74 % F
GI50 (KM12 [2]): 100 nM
